Source: patent publication US9561197B2 (Horizon Therapeutics, LLC, priority 2012, dated 2017)
Read-outs that look alike come from different tables or passages of the source.

Assays:
[1] = Patient 1
[2] = not given; remark: listed apart in the source
[3] = Patient 2

## O=C(CCCc1ccccc1)OCC(COC(=O)CCCc1ccccc1)OC(=O)CCCc1ccccc1 [HPN-100, glyceryl tri-[4-phenylbutyrate]]
[1]; HPN-100 9 mL/day, after overnight fasting
  ammonia: 55 µmol/L
[1]; HPN-100 9 mL/day, midday several hours after lunch
  ammonia: 117 µmol/L
[1]; HPN-100 12 mL/day for one week, after overnight fasting
  ammonia: 9 µmol/L
[1]; HPN-100 12 mL/day for one week, midday
  ammonia: 35 µmol/L
[1]; after one week at HPN-100 12 mL/day
  symptoms (headache, lack of appetite): all symptoms resolved
Patient 7, HPN-100 6 mL BID, during 3 months
  episodes of HE: no episodes of HE
Patient 7, HPN-100 6 mL BID, follow up after 3 months (blood ammonia 85 μmol/L before therapy)
  ammonia: 30 µmol/L
human, in vivo
  unusual symptoms: did not report any unusual symptoms
  unusual symptoms such as dizziness, headache, or nausea: had not experienced any unusual symptoms
[2]; Patient 3, HPN-100 18 mL/day for the past month
  ammonia: 22 µmol/L
[2]; human, in vivo
  PAGN: 259 µg/L
  complaints: did not have any complaints

## sodium phenylbutyrate [NaPBA]
[3]; NaPBA 450 mg/Kg/day for one week
  ammonia: 20 µmol/L
[3]; NaPBA 600 mg/kg per day
  ammonia levels: < 9 µmol/L
